PMC3602154 (PLoS ONE, 2013)

Columns and labels:
5-HT1A = molecular target: T1, 5-HT1A (Homo sapiens, UniProt P08908); experiment: PDSP radioligand binding, serotonin receptor 5-HT1A
T1 sequence (P08908 1-422): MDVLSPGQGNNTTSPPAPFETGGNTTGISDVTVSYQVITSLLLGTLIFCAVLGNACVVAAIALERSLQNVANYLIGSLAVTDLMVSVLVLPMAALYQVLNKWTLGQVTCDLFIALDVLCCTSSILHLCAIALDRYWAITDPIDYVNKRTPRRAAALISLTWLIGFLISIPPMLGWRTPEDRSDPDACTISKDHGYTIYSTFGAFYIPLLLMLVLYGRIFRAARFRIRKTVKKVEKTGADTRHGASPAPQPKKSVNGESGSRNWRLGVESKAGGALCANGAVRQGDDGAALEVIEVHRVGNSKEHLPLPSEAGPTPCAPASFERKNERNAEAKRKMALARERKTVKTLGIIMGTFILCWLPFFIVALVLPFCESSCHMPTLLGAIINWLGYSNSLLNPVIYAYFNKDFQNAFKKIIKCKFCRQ
Text: (§1) [17] and http://pdsp.med.unc.edu/UNC-CH%20Protocol%20Book.pdf.

5-ht5a = 5-ht5a (Homo sapiens, UniProt P47898); experiment: PDSP radioligand binding, serotonin receptor 5-HT5
Text: as §1

A2B4 = A2B4 (Rattus norvegicus, UniProt P12389+P12392); experiment: PDSP radioligand binding, nicotinic receptor α2 ß4
Text: as §1

D1 = D1 (Homo sapiens, UniProt P21728); experiment: PDSP radioligand binding, dopamine receptor D1
Text: as §1

D2 = D2 (Homo sapiens, UniProt P14416); experiment: PDSP radioligand binding, dopamine receptor D2
Text: as §1

D3 = D3 (Homo sapiens, UniProt P35462); experiment: PDSP radioligand binding, dopamine receptor D3
Text: as §1

D4 = molecular target: T2, D4 (Homo sapiens, UniProt P21917); experiment: PDSP radioligand binding, dopamine receptor D4
T2 sequence (P21917 1-419): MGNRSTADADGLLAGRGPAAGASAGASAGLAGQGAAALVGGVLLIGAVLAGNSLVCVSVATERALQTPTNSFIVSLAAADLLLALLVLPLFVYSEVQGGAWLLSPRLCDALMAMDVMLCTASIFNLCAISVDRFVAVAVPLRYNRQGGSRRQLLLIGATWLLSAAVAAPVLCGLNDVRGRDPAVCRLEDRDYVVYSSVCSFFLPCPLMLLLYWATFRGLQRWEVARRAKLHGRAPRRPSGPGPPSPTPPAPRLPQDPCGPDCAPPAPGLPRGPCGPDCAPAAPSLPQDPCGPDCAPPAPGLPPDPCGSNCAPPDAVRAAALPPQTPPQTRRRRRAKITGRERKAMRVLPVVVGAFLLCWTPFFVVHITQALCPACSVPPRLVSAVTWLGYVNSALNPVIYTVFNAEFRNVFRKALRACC
Text: as §1

DOR = DOR (Homo sapiens, UniProt P41143); experiment: PDSP radioligand binding, opioid receptor DOR
Text: as §1

GABAB = GABAB (Homo sapiens, UniProt Q9UBS5); experiment: PDSP radioligand binding, GABA-B
Text: as §1

H1 = H1 (Homo sapiens, UniProt P35367); experiment: PDSP radioligand binding, histamine receptor H1
Text: as §1

H2 = H2 (Homo sapiens, UniProt P25021); experiment: PDSP radioligand binding, histamine receptor H2
Text: as §1

H3 = H3 (Homo sapiens, UniProt Q9Y5N1); experiment: PDSP radioligand binding, histamine receptor H3
Text: as §1

M2 = molecular target: T3, M2 (Homo sapiens, UniProt P08172); experiment: PDSP radioligand binding, muscarinic receptor M2
T3 sequence (P08172 1-466): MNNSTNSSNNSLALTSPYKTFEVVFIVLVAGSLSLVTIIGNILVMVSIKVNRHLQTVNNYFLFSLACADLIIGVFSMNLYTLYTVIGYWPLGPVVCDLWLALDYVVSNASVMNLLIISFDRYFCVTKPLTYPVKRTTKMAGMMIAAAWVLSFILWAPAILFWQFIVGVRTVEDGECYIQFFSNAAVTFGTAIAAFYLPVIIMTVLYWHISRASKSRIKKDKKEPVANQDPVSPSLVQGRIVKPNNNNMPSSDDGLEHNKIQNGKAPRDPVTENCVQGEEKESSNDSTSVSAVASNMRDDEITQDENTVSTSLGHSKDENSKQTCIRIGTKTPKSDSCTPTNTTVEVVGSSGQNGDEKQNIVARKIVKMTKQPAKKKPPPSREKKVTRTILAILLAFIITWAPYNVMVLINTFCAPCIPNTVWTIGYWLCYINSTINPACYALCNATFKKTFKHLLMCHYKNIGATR
Text: as §1

M3 = M3 (Homo sapiens, UniProt P20309); experiment: PDSP radioligand binding, muscarinic receptor M3
Text: as §1

M5 = molecular target: T4, M5 (Homo sapiens, UniProt P08912); experiment: PDSP radioligand binding, muscarinic receptor M5
T4 sequence (P08912 1-532): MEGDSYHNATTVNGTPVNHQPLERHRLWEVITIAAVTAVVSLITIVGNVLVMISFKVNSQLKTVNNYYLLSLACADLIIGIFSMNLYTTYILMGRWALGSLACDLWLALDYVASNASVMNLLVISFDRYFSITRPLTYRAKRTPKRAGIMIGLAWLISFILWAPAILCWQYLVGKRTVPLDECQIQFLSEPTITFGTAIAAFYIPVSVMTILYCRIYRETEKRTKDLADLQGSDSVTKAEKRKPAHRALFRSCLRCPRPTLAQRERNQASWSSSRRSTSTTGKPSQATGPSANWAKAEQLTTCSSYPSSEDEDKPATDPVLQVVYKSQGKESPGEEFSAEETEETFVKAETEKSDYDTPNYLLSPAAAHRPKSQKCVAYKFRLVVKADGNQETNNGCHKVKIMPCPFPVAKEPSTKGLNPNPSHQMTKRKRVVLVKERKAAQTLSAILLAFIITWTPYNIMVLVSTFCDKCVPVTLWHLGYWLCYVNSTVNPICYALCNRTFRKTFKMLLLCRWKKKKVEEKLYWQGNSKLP
Text: as §1

[1] = molecular target: NET (norepinephrine transporter) (Homo sapiens, UniProt P23975); experiment: PDSP radioligand binding, norepinephrine transporter; conditions: for inhibition at 10 µM: quadruplicate, read-out: NET Primary Screen inhibition of binding
Text: as §1

PBR = PBR (Homo sapiens, UniProt P30536); experiment: PDSP radioligand binding, peripheral benzodiazepine receptor
Text: as §1

Sigma1 = Sigma1 (Homo sapiens, UniProt Q99720); experiment: PDSP radioligand binding, Sigma1
Text: as §1

Sequence of A2B4 (P12389 28-511): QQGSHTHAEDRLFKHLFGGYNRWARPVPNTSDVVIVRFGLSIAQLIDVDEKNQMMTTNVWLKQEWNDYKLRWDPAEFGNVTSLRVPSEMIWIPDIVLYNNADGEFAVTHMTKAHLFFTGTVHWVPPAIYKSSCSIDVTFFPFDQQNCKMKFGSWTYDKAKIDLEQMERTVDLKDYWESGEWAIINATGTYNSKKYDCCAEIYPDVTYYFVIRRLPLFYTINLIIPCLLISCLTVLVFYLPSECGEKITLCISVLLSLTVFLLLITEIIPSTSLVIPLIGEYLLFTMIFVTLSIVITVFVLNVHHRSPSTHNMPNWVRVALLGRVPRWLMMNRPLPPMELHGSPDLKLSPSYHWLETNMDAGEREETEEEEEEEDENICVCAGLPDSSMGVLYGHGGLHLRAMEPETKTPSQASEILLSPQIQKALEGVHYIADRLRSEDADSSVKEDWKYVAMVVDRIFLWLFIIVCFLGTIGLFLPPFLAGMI
Sequence of A2B4 (P12392 21-495): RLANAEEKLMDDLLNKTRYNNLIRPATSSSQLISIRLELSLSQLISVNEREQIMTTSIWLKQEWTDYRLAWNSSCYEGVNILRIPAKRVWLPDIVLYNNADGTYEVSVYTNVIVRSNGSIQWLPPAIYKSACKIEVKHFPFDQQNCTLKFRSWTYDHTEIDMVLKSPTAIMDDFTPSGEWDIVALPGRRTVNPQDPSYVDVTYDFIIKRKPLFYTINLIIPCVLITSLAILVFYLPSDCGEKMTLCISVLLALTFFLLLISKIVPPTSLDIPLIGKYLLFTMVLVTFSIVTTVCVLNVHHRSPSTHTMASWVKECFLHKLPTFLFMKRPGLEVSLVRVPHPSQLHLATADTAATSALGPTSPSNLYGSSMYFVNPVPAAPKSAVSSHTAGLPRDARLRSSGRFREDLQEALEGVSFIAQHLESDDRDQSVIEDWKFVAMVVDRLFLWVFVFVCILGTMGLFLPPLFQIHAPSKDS
Sequence of PBR (P30536 whole entry, species assumed): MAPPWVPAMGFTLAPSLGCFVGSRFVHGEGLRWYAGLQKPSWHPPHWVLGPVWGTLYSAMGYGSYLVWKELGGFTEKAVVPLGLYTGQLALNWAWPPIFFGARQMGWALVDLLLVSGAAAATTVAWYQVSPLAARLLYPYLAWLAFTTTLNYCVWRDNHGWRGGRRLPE
Sequence of Sigma1 (Q99720 whole entry): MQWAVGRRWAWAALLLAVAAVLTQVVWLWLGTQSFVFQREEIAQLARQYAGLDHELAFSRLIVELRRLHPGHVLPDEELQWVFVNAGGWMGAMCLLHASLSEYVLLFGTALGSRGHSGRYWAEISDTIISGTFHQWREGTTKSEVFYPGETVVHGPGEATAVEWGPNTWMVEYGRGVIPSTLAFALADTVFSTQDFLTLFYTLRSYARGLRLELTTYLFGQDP
Sequence of H2 (P25021 whole entry): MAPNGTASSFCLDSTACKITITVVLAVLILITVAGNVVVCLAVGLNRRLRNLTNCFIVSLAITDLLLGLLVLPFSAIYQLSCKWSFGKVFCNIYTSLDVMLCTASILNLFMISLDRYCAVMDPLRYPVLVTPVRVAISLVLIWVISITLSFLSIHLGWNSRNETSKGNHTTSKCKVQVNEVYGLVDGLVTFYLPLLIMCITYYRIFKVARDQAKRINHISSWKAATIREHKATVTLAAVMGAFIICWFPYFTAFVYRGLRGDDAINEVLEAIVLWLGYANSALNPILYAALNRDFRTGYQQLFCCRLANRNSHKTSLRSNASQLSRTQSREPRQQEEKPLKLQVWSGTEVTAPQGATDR
Sequence of DOR (P41143 whole entry): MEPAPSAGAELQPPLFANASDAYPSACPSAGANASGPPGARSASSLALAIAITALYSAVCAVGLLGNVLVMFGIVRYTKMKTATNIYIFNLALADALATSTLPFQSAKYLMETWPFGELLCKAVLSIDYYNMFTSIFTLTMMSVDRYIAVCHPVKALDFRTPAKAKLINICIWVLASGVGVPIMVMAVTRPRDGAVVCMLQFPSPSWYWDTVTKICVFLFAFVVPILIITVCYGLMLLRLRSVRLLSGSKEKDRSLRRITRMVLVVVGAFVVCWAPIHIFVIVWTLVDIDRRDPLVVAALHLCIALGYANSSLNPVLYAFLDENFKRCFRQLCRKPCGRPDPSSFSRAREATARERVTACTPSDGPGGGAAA
Sequence of D3 (P35462 whole entry): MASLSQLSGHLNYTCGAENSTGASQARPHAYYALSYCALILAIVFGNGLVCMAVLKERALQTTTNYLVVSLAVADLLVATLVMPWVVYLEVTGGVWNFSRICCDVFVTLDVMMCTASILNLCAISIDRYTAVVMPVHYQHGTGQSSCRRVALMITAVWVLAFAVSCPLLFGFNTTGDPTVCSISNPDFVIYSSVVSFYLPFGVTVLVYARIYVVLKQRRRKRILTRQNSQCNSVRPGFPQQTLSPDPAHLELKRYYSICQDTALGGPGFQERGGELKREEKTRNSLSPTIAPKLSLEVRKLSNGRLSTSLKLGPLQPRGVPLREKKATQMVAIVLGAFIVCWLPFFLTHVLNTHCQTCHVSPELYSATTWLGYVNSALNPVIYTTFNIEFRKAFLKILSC
Sequence of 5-ht5a (P47898 whole entry, species assumed): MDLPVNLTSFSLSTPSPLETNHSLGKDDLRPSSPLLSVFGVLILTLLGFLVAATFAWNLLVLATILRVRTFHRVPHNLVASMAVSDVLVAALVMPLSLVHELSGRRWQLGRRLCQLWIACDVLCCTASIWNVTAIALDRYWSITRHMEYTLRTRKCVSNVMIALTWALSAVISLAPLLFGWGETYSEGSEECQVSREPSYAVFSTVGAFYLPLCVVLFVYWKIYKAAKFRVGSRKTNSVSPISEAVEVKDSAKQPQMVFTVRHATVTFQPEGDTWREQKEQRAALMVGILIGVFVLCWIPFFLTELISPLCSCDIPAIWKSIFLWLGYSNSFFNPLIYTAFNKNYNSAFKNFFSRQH
Sequence of GABAB (Q9UBS5 15-961 limits assumed): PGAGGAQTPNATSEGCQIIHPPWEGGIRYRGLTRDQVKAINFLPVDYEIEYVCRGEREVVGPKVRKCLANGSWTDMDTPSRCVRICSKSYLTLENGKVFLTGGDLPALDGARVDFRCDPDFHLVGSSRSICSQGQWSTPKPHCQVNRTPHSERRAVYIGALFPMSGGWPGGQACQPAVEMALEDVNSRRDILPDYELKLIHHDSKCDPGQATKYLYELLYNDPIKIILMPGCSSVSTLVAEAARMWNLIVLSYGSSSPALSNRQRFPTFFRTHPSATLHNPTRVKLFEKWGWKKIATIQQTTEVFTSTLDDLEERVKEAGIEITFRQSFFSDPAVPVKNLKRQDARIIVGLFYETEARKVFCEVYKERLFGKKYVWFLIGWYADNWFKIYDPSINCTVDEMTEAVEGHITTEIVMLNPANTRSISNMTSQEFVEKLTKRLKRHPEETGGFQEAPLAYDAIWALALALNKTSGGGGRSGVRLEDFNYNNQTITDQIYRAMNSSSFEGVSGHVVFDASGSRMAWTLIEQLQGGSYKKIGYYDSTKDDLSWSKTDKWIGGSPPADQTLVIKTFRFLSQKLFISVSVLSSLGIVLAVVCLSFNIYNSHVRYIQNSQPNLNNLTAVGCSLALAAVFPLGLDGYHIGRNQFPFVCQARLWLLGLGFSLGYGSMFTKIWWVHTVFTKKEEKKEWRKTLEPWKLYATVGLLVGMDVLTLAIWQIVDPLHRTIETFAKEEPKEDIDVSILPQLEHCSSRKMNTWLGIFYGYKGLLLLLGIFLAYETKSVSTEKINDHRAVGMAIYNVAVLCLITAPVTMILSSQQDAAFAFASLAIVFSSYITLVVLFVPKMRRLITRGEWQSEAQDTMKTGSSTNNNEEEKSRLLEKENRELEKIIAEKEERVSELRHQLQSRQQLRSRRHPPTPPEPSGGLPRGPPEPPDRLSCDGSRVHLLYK
Sequence of GABAB (O75899 42-941 partner): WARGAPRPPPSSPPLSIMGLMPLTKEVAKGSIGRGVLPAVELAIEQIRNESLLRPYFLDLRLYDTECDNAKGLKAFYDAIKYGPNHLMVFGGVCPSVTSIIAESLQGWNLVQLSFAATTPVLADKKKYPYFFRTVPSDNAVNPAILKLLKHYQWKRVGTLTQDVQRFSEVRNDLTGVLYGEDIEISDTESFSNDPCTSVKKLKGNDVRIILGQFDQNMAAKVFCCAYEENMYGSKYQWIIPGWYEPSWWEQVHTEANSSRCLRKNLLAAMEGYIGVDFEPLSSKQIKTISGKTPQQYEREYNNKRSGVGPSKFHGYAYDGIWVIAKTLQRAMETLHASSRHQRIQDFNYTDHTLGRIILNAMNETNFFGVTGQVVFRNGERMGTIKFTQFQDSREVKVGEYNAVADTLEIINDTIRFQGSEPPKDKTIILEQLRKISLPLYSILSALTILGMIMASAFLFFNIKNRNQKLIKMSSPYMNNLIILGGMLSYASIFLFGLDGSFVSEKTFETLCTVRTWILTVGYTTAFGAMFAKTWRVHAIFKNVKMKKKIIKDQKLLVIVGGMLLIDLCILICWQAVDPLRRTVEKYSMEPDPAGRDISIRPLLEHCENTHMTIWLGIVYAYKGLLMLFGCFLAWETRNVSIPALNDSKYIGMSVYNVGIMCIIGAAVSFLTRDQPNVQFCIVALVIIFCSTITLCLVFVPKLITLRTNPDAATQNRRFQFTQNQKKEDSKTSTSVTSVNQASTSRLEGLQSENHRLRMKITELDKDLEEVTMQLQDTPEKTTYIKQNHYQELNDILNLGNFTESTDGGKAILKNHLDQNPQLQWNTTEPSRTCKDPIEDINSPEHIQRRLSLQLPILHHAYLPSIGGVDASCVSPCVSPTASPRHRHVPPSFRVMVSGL

CCNC1(c2cccc(OC)c2)CCCCC1=O (racemic) [Methoxetamine, (RS)-2-(ethylamino)-2-(3-methoxyphenyl)cyclohexanone]
Ki (5-HT1A): > 10 µM | Ki (5-ht5a): > 10 µM | Ki (A2B4): > 10 µM | Ki (D1): > 10 µM | Ki (D2): > 10 µM | Ki (D3): > 10 µM | Ki (D4): > 10 µM | Ki (DOR): > 10 µM | Ki (GABAB): > 10 µM | Ki (H1): 2.96 µM | Ki (H2): > 10 µM | Ki (H3): > 10 µM | Ki (M2): > 10 µM | Ki (M3): > 10 µM | Ki (M5): > 10 µM | Ki [1]: > 10 µM | inhibition at 10 µM [1]: < 50% | Ki (PBR): > 10 µM | Ki (Sigma1): > 10 µM | inhibition at 10 µM (Sigma1; 10 µM, quadruplicate, read-out: Sigma1 Primary Screen inhibition of binding): < 50%

COc1cccc(C2(N3CCCCC3)CCCCC2)c1 [3-MeO-PCP, 1-[1-(3-methoxyphenyl)cyclohexyl]piperidine]
Ki (5-HT1A): > 10 µM | Ki (5-ht5a): > 10 µM | Ki (A2B4): > 10 µM | Ki (D1): > 10 µM | Ki (D2): > 10 µM | Ki (D3): > 10 µM | Ki (D4): > 10 µM | Ki (DOR): > 10 µM | Ki (GABAB): > 10 µM | Ki (H1): > 10 µM | Ki (H2): 2.1 µM | Ki (H3): > 10 µM | Ki (M2): > 10 µM | Ki (M3): > 10 µM | Ki (M5): > 10 µM | Ki [1]: > 10 µM | inhibition at 10 µM [1]: < 50% | Ki (PBR): > 10 µM | Ki (Sigma1): 0.042 µM

COc1ccc(C2(N3CCCCC3)CCCCC2)cc1 [4-MeO-PCP, 1-[1-(4-methoxyphenyl)cyclohexyl]piperidine]
Ki (5-HT1A): > 10 µM | Ki (5-ht5a): > 10 µM | Ki (A2B4): > 10 µM | Ki (D1): > 10 µM | Ki (D2): > 10 µM | Ki (D3): > 10 µM | Ki (D4): > 10 µM | Ki (DOR): > 10 µM | Ki (GABAB): > 10 µM | Ki (H1): > 10 µM | Ki (H2): > 10 µM | Ki (H3): > 10 µM | Ki (M2): > 10 µM | Ki (M3): > 10 µM | Ki (M5): > 10 µM | Ki [1]: 0.713 µM | Ki (PBR): > 10 µM | Ki (Sigma1): 0.296 µM
